# From patent publication US20120214710A1, “METHOD OF PREDICTING RESPONSE TO THALIDOMIDE IN MULTIPLE MYELOMA PATIENTS” (Dublin City University, priority 2009, published 2012)
# Tests used:
# Multiple Myeloma = test: Day-100 re-staging (IMWG uniform response criteria) of newly diagnosed MM patients on thalidomide-based regimens; assay type: in vivo, human
# Procedure: Serum samples from 51 consecutive newly diagnosed MM patients who were having initial treatment with thalidomide-based regimens were analyzed. Samples were obtained at diagnosis and prior to commencement of therapy. The samples were collected according to standard phlebotomy procedures from consented patients. Ethical consent was granted from the Mater Misericordiae University Hospital, Dublin, Ireland ethics committee. 10 ml of blood sample was collected into additive free blood tubes and was allowed to clot for 30 minutes to 1 hour at room temperature. Samples were coded and transported on ice to the laboratory. The serum was denuded by pipette from the clot and place into a clean tube. The tubes were centrifuged at 400 relative centrifugal force (rcf) for 30 minutes at 4° C. Serum was aliquoted in the cryovial tubes, labeled and stored at −80° C. until time of analysis. The time from sample procurement to storage at −80° C. was less than 3 hours. Each serum sample underwent no more than 3 freeze/thaw cycles prior to analysis.
# The mean age of the patient group was 68 SD+/−6.95 years (range 52-81 years); 27 were male and 24 female. Based on Day-100 re-staging investigations and using the International Myeloma Working Group (IMWG) uniform response criteria (Rajkumar S V, Buadi F. Multiple myeloma: new staging systems for diagnosis, prognosis and response evaluation. Best Pract Res Clin Haematol. 2007; 20:665-680; Durie B G, Harousseau J L, Miguel J S, et al. International uniform response criteria for multiple myeloma. Leukemia. 2006;20:1467-1473) for MM, 29 responders and 22 non-responders to thalidomide-based therapy were identified. The mean age was 66 SD+/−6.80 years (range, 52-81 years) for responders and 70 SD+/−6.69 years (range, 57-79 years) for non-responders. Based on the ISS classification (Hotta T. [Classification, staging and prognostic indices for multiple myeloma]. Nippon Rinsho. 2007; 65:2161-2166), 6 responding patients had stage I, 15 had stage II and 8 had stage III disease. […] had stage I, 11 had stage II and 9 had stage III disease. In the responders group, 24 patients were treated with thalidomide and dexamethasone (TD), 3 with thalidomide, cyclophosphamide and dexamethasone (CTD) and 2 with melphalan, prednisone and thalidomide (MPT). In the non-responder group, 17 patients received TD, 4 received CTD and 1 patient received MPT. Median follow-up was 13 months (range, 6-21 months). In the responder group, 9 patients achieved complete response (CR) and 20 achieved very good partial response (VGPR). Five non-responders had Stable disease (SD) and the remaining 17 had Progressive disease (PD) (Table I).
# [1] = use in myeloma; cited from earlier work
# [2] = 51 newly diagnosed MM patients, Day-100 re-staging, IMWG criteria
compound,measurement,setting,value
"O=C1CCC(N2C(=O)c3ccccc3C2=O)C(=O)N1 (stereo not drawn) [thalidomide, 2-(2,6-dioxopiperidin-3-yl)-1H-isoindole-1,3(2H)-dione]",number of non-responders (SD or PD),Multiple Myeloma; [2],22 patients
same,number of responders (CR or VGPR),Multiple Myeloma; [2],29 patients
same,patients with Progressive disease (PD),"Multiple Myeloma; non-responder group, n=22",17 patients
same,patients achieving complete response (CR),"Multiple Myeloma; responder group, n=29",9 patients
same,patients achieving very good partial response (VGPR),"Multiple Myeloma; responder group, n=29",20 patients
same,serious side effects,[1],thrombo-embolic disease and peripheral neuropathy
